# Source: US10676436B2, “NLRX1 ligands” (Landos Biopharma, Inc., priority 2018, dated 2020)
# Key:
# Human NLRX1 (NLRX1-WT) = biological target: T1, Human NLRX1 (NLRX1-WT) (Homo sapiens, UniProt Q86UT6); assay: Surface plasmon resonance binding to NLRX1-WT
# T1 construct: made in house; host or cells: Pichia pastoris
# Method: NLRX1 production and purification. Human NLRX1 (www.uniprot.org; UniProtKB—Q86UT6 (NLRX1 HUMAN)) was cloned into E. coli, amplified and transfected in Pichia pastoris. P. pastoris was plated onto adenine selective media. Stable transfected colonies were selected and grown within YPD broth at 30° C. for 24 hours, 240 RPM shaking. Starter culture was used to inoculate base media (1% yeast extract, 2% peptone, 1% sorbitol, 2% yeast nitrogen base) containing biotin and buffered with potassium phosphate. Inoculated base media was incubated for 48 hours at 30° C., 240 RPM. P. pastoris was then pelleted by centrifugation and resuspended in expression media (1% sorbitol, 2% yeast nitrogen base) containing biotin and buffered with potassium phosphate. Culture was induced daily for protein production through addition of methanol and incubated for a total of 4 days at 28° C., 240 RPM. After incubation, cells were pelleted by centrifugation and lysed by sonication. Recombinant NLRX1 protein was purified by fast protein liquid chromatography (AktaPrime) using immobilized metal affinity chromatography. Fractions of protein were eluted in 1 mL aliquots and evaluated for NLRX1 content. A mutated NLRX1 protein was generated using similar methods to disrupt binding within the predicted binding site through altering four residues to alanine (D677A, F680A, F681A, and E684A).
# A Biacore T200 was used to evaluate binding to the NLRX1 protein. NLRX1-WT and NLRX1-Mutant were used as proteins to immobilize onto the CM5 sensor chip. NLRX1-WT was diluted in 10 mM sodium acetate buffer at pH 4.0 and immobilized onto the flow cell to a level of ˜3700 RU, using standard amine coupling chemistry. NLRX1-Mutant was diluted in 10 mM sodium acetate buffer at pH 4.0 and immobilized onto the flow cell to a level of ˜3100 RU, using standard amine coupling chemistry. 20 mM MOPS, 150 mM NaCl, 5 mM sodium acetate, 1 mM EDTA, 0.05% Tween-20, pH 8.0 buffer (Running buffer) was used as the immobilization running buffer. Based on the immobilized response values, theoretical Rmax values were calculated. The Rmax values assume 1:1 interaction mechanism. Overnight kinetics were performed for all analytes binding to the immobilized proteins. The kinetics experiments were performed in the μL/min. presence of running buffer+1% DMSO. The flow rate of all solutions was maintained at 50 Analyte concentrations were 0 μM, 2.5 μM, 5 μM 10 μM 20 μM and 40 μM.
# CD4+ T cells = assay: Immunological screening in vitro in CD4+ splenocytes, flow cytometry; type: cell-based, C57BL/6 mice
# Excerpt: Spleens were excised from C57BL/6 mice. Spleens were crushed between the frosted ends of microscope slides and filtered to provide a cellular suspension. Red blood cells were lysed through hypotonic lysis. Remaining cells were washed and filtered. CD4+ T cells were enriched within the suspension using magnetic sorting based negative selection. Cells were collected and plated within 96 well plates coated with anti-CD3 and cultured in the presence of NX-13, NX-37, NX-43, NX-44, or NX-50 at 0, 0.1, 1 or 10 micromolar; NX-53, NX-54, NX-55, or NX-56 at 0, 0.1, or 1 micromolar; or NX-45 at 10, 50 or 100 nanomolar for 48 h. During the last 6 h of culture, cells were stimulated with phorbol 12-myristate-13-acetate (PMA) and ionomycin.
# Cells were collected from 96 well plates and stained with a cocktail of antibodies for immunophenotyping by flow cytometry. Culture supernatant was collected and assayed for cytokine concentrations by cytometric bead array. Data was captured on a BD FACS Celesta and analyzed using FacsDiva.
# [1] = system: peripheral blood mononuclear cells (PBMCs) of ulcerative colitis patients; assay: Ex vivo treatment of PBMCs of ulcerative colitis patients, flow cytometry; type: cell-based, human
# Method: Samples were obtained from male and female donors clinically categorized as having moderate to severe disease. Age and current medications were not used as exclusion criteria. Whole blood was collected into heparinized vacuum tubes. Whole blood was diluted 1:3 volumes with sterile phosphate buffered saline. LeucoSep (Greiner) were prepared by addition of Lymphocyte Separation Media followed by 15 second centrifugation at max speed. Diluted whole blood was added to LeucoSep tubes. After centrifugation (2000×g, 20 min), PBMCs were collected from the interphase by Pasteur pipette. Remaining red blood cells were lysed by hypotonic lysis and suspension was filtered through a […] cell strainer. PBMCs were washed and re-suspended in sterile cell culture media, RPMI containing 10% fetal bovine serum, 2.5% Hepes solution, 1% L-glutamine, 1% penicillin/streptomycin, 1% sodium pyruvate, and 1% essential amino acids (complete RPMI).
# Target cells were incubated for 24 h in complete RPMI culture media at 37° C. Cells were incubated in the presence of NX-13 ranging in concentration from 1 nM to 100 nM. NX-13 stock solution was prepared at 100 mM in dimethyl sulfoxide (DMSO) and diluted to desired concentration in culture media. DMSO concentrations were adjusted to be equal across all doses and vehicle treatments. Six hours prior to assay, cells were stimulated with phorbol 12-myristate 13-acetate (PMA) and ionomycin to stimulate cellular activation. Cells were assayed for desired data at 24 h.
# Prior to collection, cells were incubated BD GolgiStop (2 μL GolgiStop to 3 mL of total media) to allow intracellular accumulation of cytokines. Cells were live stained with extracellular (CD45, CD3, CD4, CD8, CD11b) and intracellular (FOXP3, IL-10, IL-4, IFNγ, TNFα) in a sequential manner. Data was acquired on a BD FACs Celesta and analyzed using FACSDiva. Non-viable and non-singlet cells were excluded from analysis. Data is presented as percentage of CD45+ cells or % viable, singlets.
# [2] = wild-type cells, 48 h, PMA and ionomycin
# [3] = ulcerative colitis samples, 1 nM
# [4] = ulcerative colitis samples, 1 to 100 nM, 24 h
# T1 sequence (Q86UT6 87-975): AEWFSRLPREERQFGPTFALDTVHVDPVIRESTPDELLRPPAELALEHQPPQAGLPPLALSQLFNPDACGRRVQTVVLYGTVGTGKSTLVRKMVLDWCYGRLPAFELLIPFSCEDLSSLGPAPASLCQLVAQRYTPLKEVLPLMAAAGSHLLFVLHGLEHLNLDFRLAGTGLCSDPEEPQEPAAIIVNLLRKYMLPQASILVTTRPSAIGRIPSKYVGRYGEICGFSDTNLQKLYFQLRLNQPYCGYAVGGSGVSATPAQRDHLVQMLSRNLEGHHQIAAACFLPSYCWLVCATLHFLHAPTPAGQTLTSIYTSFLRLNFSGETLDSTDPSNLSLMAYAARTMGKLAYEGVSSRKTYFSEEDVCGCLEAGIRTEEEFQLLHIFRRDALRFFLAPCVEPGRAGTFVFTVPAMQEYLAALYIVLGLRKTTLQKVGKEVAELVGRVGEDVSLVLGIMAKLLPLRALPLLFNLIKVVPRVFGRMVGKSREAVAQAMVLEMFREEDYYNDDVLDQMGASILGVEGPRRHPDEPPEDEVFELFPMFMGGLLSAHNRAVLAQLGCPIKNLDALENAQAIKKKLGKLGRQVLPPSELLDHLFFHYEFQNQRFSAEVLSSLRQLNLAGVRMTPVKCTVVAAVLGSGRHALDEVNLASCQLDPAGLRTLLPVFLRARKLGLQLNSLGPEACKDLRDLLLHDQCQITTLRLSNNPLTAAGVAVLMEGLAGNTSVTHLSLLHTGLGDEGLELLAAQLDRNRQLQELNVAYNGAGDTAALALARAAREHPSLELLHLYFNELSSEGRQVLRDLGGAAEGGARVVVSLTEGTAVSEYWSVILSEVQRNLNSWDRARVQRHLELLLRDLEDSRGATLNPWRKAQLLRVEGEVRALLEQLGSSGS
structure (smiles),measurement,setting,value
"Cc1cccc(Oc2cc(Oc3cccc(C)n3)cc(Oc3cccc(C)n3)c2)n1 [NX-13, 1,3,5-tris (6-methylpyridin-2-yloxy) benzene]",binding to NLRX1 by surface plasmon resonance (in words),Human NLRX1 (NLRX1-WT),bind to NLRX1
same,Kd,"Human NLRX1 (NLRX1-WT); 1:1 binding model fitting, read-out: steady state dissociation constant KD",30.2 µM
same,function at NLRX1 concluded from the cytokine results,CD4+ T cells,activators of NLRX1
same,effects on IFNγ and TNFα producing CD4+ T cells in the absence of NLRX1,CD4+ T cells; NLRX1 deficient cells,these effects were lost
same,proportion of IFNγ producing (IFNγ+) CD4+ T cells,CD4+ T cells; [2],reduced
same,proportion of TNFα producing (TNFα+) CD4+ T cells,CD4+ T cells; [2],reduced
same,amount of TNFα present in each cell (mean fluorescent intensity),[1]; in a dose dependent manner,reduced
same,concentrations with significant reductions of IFNγ producing cells,[1]; ulcerative colitis samples,≥ 10 nM
same,concentrations with significant reductions of TNFα producing cells,[1]; ulcerative colitis samples,≥ 10 nM
same,IFNγ producing cells at 1 nM,[1]; [3],significant decrease
same,TNF producing cells at 1 nM,[1]; [3],significant reductions were not observed
same,percentage of IFNγ producing CD4+ T cells,[1]; [4],decreased
same,percentage of TNFα producing CD4+ T cells,[1]; [4],decreased
